Experiments:
Ba/F3 (N-Ras G12D) = test: Proliferation inhibitory activity, Ba/F3; assay type: cell-based; conditions: Mus musculus, BaF3; Ba/F3 (N-Ras G12D) cell line; read-out: Proliferation inhibitory efficacy (GI50, μM) Ba/F3 (N-Ras G12D)
Procedure: GI50 values were calculated by measuring the proliferation inhibitory efficacy of the compounds of the present invention on mt-NRAS (G12D) Ba/F3, U937 (wt-NRAS) and OCI-AML3 (mt-NRAS) cell lines.

TNIK = TNIK (Homo sapiens, UniProt Q9UKE5); test: Kinase panel biochemical assay; conditions: 1 μM single concentration, read-out: % residual enzyme activity
Procedure, shortened: (§1)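 Values reflect one-concentration (1 μM) biochemical testing; inhibition is derived from the percent of kinase activity that remains.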

IR = IR (Homo sapiens, UniProt P06213); test: Kinase panel biochemical assay; conditions: 1 μM single concentration, read-out: % residual enzyme activity
Procedure, shortened: as §1

RAF1 = RAF1 (Homo sapiens, UniProt P04049); test: Kinase panel biochemical assay; conditions: 1 μM single concentration, read-out: % residual enzyme activity
Procedure, shortened: as §1

JAK2 = JAK2 (Homo sapiens, UniProt O60674); test: Kinase panel biochemical assay; conditions: 1 μM single concentration, read-out: % residual enzyme activity
Procedure, shortened: as §1

TRKC = TRKC (Homo sapiens, UniProt Q16288); test: Kinase panel biochemical assay; conditions: 1 μM single concentration, read-out: % residual enzyme activity
Procedure, shortened: as §1

PEAK1 = PEAK1 (Homo sapiens, UniProt Q9H792); test: Kinase panel biochemical assay; conditions: 1 μM single concentration, read-out: % residual enzyme activity
Procedure, shortened: as §1

LIMK1 = LIMK1 (Homo sapiens, UniProt P53667); test: Kinase panel biochemical assay; conditions: 1 μM single concentration, read-out: % residual enzyme activity
LIMK1, sequence (P53667 whole entry): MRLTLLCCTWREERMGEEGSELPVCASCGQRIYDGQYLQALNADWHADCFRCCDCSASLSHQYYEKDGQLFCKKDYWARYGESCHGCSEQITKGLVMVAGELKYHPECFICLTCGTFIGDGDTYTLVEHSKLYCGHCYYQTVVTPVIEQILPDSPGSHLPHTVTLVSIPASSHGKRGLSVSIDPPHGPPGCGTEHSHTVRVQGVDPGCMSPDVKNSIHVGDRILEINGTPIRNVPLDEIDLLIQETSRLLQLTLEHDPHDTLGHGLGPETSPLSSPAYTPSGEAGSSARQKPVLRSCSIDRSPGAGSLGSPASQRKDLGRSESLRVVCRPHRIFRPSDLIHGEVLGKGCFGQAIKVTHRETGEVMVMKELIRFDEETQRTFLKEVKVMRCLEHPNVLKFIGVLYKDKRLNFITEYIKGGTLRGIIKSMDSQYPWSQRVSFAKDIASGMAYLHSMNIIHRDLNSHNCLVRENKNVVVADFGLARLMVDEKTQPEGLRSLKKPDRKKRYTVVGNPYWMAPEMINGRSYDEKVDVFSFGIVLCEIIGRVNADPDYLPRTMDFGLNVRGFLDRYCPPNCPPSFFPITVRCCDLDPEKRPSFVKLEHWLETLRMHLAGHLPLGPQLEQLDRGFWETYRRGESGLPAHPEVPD
Procedure, shortened: as §1

LYN = LYN (Homo sapiens, UniProt P07948); test: Kinase panel biochemical assay; conditions: 1 μM single concentration, read-out: % residual enzyme activity
LYN, sequence (P07948 whole entry): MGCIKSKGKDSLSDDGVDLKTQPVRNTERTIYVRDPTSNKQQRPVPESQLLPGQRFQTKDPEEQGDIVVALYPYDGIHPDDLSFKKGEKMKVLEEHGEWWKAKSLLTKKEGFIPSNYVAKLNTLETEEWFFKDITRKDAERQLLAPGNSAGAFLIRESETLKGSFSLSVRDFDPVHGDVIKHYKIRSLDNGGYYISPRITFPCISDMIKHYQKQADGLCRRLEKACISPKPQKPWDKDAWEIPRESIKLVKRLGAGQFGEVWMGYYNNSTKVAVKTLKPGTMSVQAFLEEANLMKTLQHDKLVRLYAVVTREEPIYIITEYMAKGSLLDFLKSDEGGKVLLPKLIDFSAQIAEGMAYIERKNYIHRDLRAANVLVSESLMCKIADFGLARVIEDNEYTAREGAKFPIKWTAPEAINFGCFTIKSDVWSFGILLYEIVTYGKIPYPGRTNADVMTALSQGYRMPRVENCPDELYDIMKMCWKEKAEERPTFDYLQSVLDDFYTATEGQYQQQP
Procedure, shortened: as §1

EPHA5 = EPHA5 (Homo sapiens, UniProt P54756); test: Kinase panel biochemical assay; conditions: 1 μM single concentration, read-out: % residual enzyme activity
Procedure, shortened: as §1

EPHA8 = EPHA8 (Homo sapiens, UniProt P29322); test: Kinase panel biochemical assay; conditions: 1 μM single concentration, read-out: % residual enzyme activity
Procedure, shortened: as §1

ABL2/ARG = ABL2/ARG (Homo sapiens, UniProt P42684); test: Kinase panel biochemical assay; conditions: 1 μM single concentration, read-out: % residual enzyme activity
Procedure, shortened: as §1

GCK/MAP4K2 = GCK/MAP4K2 (Homo sapiens, UniProt Q12851); test: Kinase panel biochemical assay; conditions: 1 μM single concentration, read-out: % residual enzyme activity
Procedure, shortened: as §1

MEKK3 = MEKK3 (Homo sapiens, UniProt Q99759); test: Kinase panel biochemical assay; conditions: 1 μM single concentration, read-out: % residual enzyme activity
Procedure, shortened: as §1

RIPK3 = RIPK3 (Homo sapiens, UniProt Q9Y572); test: Kinase panel biochemical assay; conditions: 1 μM single concentration, read-out: % residual enzyme activity
Procedure, shortened: as §1

PYK2 = PYK2 (Homo sapiens, UniProt Q14289); test: Kinase panel biochemical assay; conditions: 1 μM single concentration, read-out: % residual enzyme activity
Procedure, shortened: as §1

RET = RET (Homo sapiens, UniProt P07949); test: Kinase panel biochemical assay; conditions: 1 μM single concentration, read-out: % residual enzyme activity
RET, sequence (P07949 29-1114): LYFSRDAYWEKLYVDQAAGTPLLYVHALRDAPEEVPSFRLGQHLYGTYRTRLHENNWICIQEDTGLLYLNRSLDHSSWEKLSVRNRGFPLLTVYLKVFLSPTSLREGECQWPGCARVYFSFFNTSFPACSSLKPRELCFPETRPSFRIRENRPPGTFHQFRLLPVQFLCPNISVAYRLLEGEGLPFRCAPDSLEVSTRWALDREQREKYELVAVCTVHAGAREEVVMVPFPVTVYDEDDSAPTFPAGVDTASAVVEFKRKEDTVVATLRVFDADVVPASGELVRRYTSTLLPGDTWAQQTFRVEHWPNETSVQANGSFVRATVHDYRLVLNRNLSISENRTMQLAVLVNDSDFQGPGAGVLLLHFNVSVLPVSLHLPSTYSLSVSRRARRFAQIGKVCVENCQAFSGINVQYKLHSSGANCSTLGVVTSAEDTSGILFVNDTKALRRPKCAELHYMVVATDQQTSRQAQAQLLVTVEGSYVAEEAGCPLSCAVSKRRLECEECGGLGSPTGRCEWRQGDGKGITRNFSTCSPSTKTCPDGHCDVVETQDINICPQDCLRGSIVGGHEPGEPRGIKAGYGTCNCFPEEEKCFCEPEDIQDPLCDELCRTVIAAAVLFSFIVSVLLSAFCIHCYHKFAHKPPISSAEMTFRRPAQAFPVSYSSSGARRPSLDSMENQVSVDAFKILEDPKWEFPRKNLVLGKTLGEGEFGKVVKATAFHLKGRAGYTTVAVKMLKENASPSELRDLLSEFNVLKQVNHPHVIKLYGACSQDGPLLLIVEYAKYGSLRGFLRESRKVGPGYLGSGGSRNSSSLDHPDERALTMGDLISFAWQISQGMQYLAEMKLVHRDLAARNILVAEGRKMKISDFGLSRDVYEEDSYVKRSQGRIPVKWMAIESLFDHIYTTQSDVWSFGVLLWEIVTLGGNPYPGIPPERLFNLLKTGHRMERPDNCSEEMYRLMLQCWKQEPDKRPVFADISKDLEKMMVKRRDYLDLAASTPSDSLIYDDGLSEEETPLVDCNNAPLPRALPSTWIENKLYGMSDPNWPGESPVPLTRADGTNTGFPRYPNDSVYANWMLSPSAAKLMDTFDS
Procedure, shortened: as §1

ERBB4/HER4 = ERBB4/HER4 (Homo sapiens, UniProt Q15303); test: Kinase panel biochemical assay; conditions: 1 μM single concentration, read-out: % residual enzyme activity
Procedure, shortened: as §1

BLK = BLK (Homo sapiens, UniProt P51451); test: Kinase panel biochemical assay; conditions: 1 μM single concentration, read-out: % residual enzyme activity
BLK, sequence (P51451 whole entry): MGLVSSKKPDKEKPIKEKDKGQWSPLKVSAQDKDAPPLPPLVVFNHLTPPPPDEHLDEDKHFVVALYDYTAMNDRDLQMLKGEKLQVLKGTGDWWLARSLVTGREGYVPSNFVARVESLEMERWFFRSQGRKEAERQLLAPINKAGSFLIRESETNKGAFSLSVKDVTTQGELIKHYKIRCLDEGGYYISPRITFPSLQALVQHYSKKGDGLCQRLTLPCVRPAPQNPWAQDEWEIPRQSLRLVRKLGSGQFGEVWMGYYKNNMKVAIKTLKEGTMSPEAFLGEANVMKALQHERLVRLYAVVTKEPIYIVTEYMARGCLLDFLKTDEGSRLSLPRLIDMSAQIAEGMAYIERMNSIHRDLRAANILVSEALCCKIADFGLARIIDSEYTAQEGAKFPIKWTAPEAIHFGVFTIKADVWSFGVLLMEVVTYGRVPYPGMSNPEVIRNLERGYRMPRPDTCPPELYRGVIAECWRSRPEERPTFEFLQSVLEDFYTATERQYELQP
Procedure, shortened: as §1

LRRK2 = LRRK2 (Homo sapiens, UniProt Q5S007); test: Kinase panel biochemical assay; conditions: 1 μM single concentration, read-out: % residual enzyme activity
Procedure, shortened: as §1

BTK = BTK (Homo sapiens, UniProt Q06187); test: Kinase panel biochemical assay; conditions: 1 μM single concentration, read-out: % residual enzyme activity
Procedure, shortened: as §1

TNK1 = TNK1 (Homo sapiens, UniProt Q13470); test: Kinase panel biochemical assay; conditions: 1 μM single concentration, read-out: % residual enzyme activity
Procedure, shortened: as §1

BRAF = BRAF (Homo sapiens, UniProt P15056); test: Kinase panel biochemical assay; conditions: 1 μM single concentration, read-out: % residual enzyme activity
Procedure, shortened: as §1

KDRNEGFR2 = KDRNEGFR2 (Homo sapiens, UniProt P35968); test: Kinase panel biochemical assay; conditions: 1 μM single concentration, read-out: % residual enzyme activity
Procedure, shortened: as §1

SRMS = SRMS (Homo sapiens, UniProt Q9H3Y6); test: Kinase panel biochemical assay; conditions: 1 μM single concentration, read-out: % residual enzyme activity
SRMS, sequence (Q9H3Y6 whole entry): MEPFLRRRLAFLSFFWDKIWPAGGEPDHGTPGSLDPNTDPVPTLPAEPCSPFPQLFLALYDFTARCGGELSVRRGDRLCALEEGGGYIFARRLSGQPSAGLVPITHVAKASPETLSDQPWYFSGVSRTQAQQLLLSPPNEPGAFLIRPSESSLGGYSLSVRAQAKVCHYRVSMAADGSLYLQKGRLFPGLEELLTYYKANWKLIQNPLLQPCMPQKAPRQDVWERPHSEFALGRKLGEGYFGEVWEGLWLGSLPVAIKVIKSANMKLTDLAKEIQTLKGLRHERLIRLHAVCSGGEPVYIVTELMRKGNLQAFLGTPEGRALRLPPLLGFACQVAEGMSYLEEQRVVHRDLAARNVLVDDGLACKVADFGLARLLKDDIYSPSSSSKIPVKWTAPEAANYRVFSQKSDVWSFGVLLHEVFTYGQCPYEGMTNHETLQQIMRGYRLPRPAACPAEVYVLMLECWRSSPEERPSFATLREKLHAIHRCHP
Procedure, shortened: as §1

SLK/STK2 = SLK/STK2 (Homo sapiens, UniProt Q9H2G2); test: Kinase panel biochemical assay; conditions: 1 μM single concentration, read-out: % residual enzyme activity
SLK/STK2, sequence (Q9H2G2 whole entry): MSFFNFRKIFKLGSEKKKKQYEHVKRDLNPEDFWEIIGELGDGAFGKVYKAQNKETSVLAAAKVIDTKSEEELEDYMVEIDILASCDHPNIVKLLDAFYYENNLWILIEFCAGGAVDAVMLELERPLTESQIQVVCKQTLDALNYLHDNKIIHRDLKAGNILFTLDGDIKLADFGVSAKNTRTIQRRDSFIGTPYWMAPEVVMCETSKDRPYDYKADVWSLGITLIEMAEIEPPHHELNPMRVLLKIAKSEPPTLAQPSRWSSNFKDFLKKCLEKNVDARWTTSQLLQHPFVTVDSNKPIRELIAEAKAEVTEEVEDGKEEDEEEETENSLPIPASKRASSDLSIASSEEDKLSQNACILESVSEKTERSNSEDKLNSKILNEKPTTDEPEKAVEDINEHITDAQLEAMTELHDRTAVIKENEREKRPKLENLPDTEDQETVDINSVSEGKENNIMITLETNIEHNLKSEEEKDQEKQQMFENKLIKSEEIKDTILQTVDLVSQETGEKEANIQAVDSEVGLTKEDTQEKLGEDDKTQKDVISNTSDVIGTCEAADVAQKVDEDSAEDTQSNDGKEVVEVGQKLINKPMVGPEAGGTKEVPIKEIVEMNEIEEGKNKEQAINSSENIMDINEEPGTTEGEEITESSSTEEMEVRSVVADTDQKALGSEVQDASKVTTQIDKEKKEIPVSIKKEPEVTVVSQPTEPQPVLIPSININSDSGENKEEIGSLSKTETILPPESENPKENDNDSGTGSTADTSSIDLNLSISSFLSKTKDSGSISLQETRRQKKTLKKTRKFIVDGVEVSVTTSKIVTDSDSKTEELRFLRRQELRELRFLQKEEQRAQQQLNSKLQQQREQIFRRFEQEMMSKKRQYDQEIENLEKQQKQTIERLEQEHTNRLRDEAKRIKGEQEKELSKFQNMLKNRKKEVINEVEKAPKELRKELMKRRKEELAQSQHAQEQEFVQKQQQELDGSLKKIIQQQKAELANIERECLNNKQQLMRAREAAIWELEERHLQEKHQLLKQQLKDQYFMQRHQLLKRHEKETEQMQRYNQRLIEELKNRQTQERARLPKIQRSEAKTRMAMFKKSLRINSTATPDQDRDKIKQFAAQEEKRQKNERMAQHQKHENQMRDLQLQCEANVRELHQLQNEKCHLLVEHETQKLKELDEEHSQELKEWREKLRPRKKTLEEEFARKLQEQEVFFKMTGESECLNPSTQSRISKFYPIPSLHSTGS
Procedure, shortened: as §1

YSK4/MAP3K19 = YSK4/MAP3K19 (Homo sapiens, UniProt Q56UN5); test: Kinase panel biochemical assay; conditions: 1 μM single concentration, read-out: % residual enzyme activity
Procedure, shortened: as §1

FGR = FGR (Homo sapiens, UniProt P09769); test: Kinase panel biochemical assay; conditions: 1 μM single concentration, read-out: % residual enzyme activity
Procedure, shortened: as §1

CSK = CSK (Homo sapiens, UniProt P41240); test: Kinase panel biochemical assay; conditions: 1 μM single concentration, read-out: % residual enzyme activity
CSK, sequence (P41240 whole entry): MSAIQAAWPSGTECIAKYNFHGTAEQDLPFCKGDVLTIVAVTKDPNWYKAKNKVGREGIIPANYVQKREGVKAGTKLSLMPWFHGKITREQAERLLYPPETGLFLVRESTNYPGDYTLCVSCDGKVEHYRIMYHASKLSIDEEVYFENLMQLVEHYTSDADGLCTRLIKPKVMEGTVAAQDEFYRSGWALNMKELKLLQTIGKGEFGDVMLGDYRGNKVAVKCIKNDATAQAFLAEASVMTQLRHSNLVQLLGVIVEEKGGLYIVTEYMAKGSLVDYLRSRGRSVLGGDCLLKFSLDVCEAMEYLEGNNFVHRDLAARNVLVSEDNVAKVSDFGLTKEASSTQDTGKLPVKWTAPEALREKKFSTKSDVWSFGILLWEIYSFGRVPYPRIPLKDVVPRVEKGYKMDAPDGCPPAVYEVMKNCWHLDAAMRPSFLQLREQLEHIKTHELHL
Procedure, shortened: as §1

CCN1CCN(C(=O)c2ccc(Nc3ncc4c(n3)N(C)C(=O)N(c3cc(NC(=O)Nc5ccccc5OC)ccc3C)C4)cn2)CC1 [Compound No. 14, 1-(3-(7-((6-(4-ethylpiperazin-1-carbonyl)pyridin-3-yl)amino)-1-methyl-2-oxo-1,4-dihydropyrimido[4,5-d]pyrimidin-3(2H)-yl)-4-methylphenyl)-3-(2-methoxyphenyl)urea]
GI50 (Ba/F3 (N-Ras G12D)): 0.5 to 3 µM | remaining activity at 1 µM (TNIK): ≤ 30% | remaining activity at 1 µM (IR): ≤ 30% | remaining activity at 1 µM (RAF1): ≤ 30% | remaining activity at 1 µM (JAK2): ≤ 30% | remaining activity at 1 µM (TRKC): ≤ 30% | remaining activity at 1 µM (PEAK1): ≤ 30% | remaining activity at 1 µM (LIMK1): ≤ 30% | remaining activity at 1 µM (LYN): ≤ 30% | remaining activity at 1 µM (EPHA5): ≤ 30% | remaining activity at 1 µM (EPHA8): ≤ 30% | remaining activity at 1 µM (ABL2/ARG): ≤ 30% | remaining activity at 1 µM (GCK/MAP4K2): ≤ 30% | remaining activity at 1 µM (MEKK3): ≤ 30% | remaining activity at 1 µM (RIPK3): ≤ 30% | remaining activity at 1 µM (PYK2): ≤ 30% | remaining activity at 1 µM (RET): ≤ 30% | remaining activity at 1 µM (ERBB4/HER4): ≤ 30% | remaining activity at 1 µM (BLK): ≤ 30% | remaining activity at 1 µM (LRRK2): ≤ 30% | remaining activity at 1 µM (BTK): ≤ 30% | remaining activity at 1 µM (TNK1): ≤ 30% | remaining activity at 1 µM (BRAF): ≤ 30% | remaining activity at 1 µM (KDRNEGFR2): ≤ 30% | remaining activity at 1 µM (SRMS): ≤ 30% | remaining activity at 1 µM (SLK/STK2): ≤ 30% | remaining activity at 1 µM (YSK4/MAP3K19): ≤ 30% | remaining activity at 1 µM (FGR): ≤ 30% | remaining activity at 1 µM (CSK): ≤ 30%
